What was measured:
ceramide channels = experiment: Screening for influence on ceramide channel formation in liposomes or planar membranes; type: biochemical
Excerpt: In one embodiment, such methods comprise screening compounds for their ability to influence the formation of ceramide channels in liposomes or planar membranes. […] Such liposomes or planar membranes can be produced using any of a variety of lipids. Preferably, however, the constituents of the liposomes or planar membranes will be selected to mimic those of the MOM, or to have relevance to such membranes (see, Weissig, V. et al. (2006) “LIPOSOMES AND LIPOSOME-LIKE VESICLES FOR DRUG AND DNA DELIVERY TO MITOCHONDRIA,” J. Liposome Res. 16(3):249-264; Torchilin, V. P. (2006) “RECENT APPROACHES TO INTRACELLULAR DELIVERY OF DRUGS AND DNA AND ORGANELLE TARGETING,” Annu. Rev. Biomed. Eng. 8:343-375; Elrick, M. J. et al. (2006) “SPHINGOSINE, A PRODUCT OF CERAMIDE HYDROLYSIS, INFLUENCES THE FORMATION OF CERAMIDE CHANNELS,” Biophys. J. 1; 91(5):1749-1756; Bathori, G. et al. (2006) “CA2+-DEPENDENT CONTROL OF THE PERMEABILITY PROPERTIES OF THE MITOCHONDRIAL OUTER MEMBRANE AND VOLTAGE-DEPENDENT ANION-SELECTIVE CHANNEL (VDAC),” J. Biol. Chem. 281(25):17347-17358; Stiban, J. et al. (2006) “DIHYDROCERAMIDE HINDERS CERAMIDE CHANNEL FORMATION: IMPLICATIONS ON APOPIOSIS,” Apoptosis 11(5):773-780; Stover, T. C. et al. (2005) “SYSTEMIC DELIVERY OF LIPOSOMAL SHORT-CHAIN CERAMIDE LIMITS SOLID TUMOR GROWTH IN MURINE MODELS OF BREAST ADENOCARCINOMA,” Clin. Cancer Res. 11(9):3465-3474).

erythrocytes = experiment: Permeabilization of erythrocytes (osmolytes of varying molecular weight); type: cell-based
[1] = tested on: ceramide channels in the MOM of rat liver mitochondria; experiment: Complex IV accessibility assay (cytochrome c oxidation), isolated rat liver mitochondria; type: biochemical; conditions: radiolabeled ceramide, rat liver mitochondria, FIG. 12
Excerpt: The amount of ceramide that needs to be added to mitochondria to achieve permeabilization of the MOM to proteins is high compared to physiological levels. However, it is not the absolute ceramide concentration in solution that is important, but rather the concentration of ceramide in the membrane. In addition, only a small percentage of the ceramide added to the solution actually inserts into the membrane. This issue was directly addressed by using radiolabeled ceramide and simultaneously measuring how much ceramide inserts into rat liver mitochondria and how much permeabilization is achieved in the MOM by measuring the accessibility of exogenously added cytochrome c. […] Levels measured in mitochondria in the early stages of apoptosis are 4 pmoles per nmole. Thus, the results are well within the physiological range. Note that after correcting for the membrane partitioning, long and short-chain ceramide have equal potency as expected from the model of the ceramide channel.
The ability of the naturally-occurring C16-ceramide to form channels in the mitochondrial outer membranes of isolated yeast mitochondria was assessed via the complex IV accessibility assay. This assay measures the bidirectional flux of cytochrome c across the mitochondrial outer membrane (MOM) by monitoring its oxidation by complex IV of the mitochondrial inner membrane electron transport chain. The initial rate of cytochrome c oxidation when expressed as a percent of the rate measured in mitochondria with damaged outer membranes is a good measure of the permeability of the MOM to proapoptotic proteins. This method has an advantage over simply looking for the release of cytochrome c because both channel prevention and reversal by a potential inhibitor can be evaluated.
Thus, mitochondria are isolated from wild type yeast and yeast strains expressing either human Bcl-2 or Bcl-xL according to previously published methods (Lee, A. et al. (1998) “THE ROLE OF YEAST VDAC GENES ON THE PERMEABILITY OF THE MITOCHONDRIAL OUTER MEMBRANE,” J. Membr. Biol. 161:173-181). Isolated yeast mitochondria are incubated with the naturally occurring C16-ceramide and its ability to form channels is evaluated according to the complex IV accessibility assay (Siskind, L. J. et al. (2002) “CERAMIDE CHANNELS INCREASE THE PERMEABILITY OF THE MITOCHONDRIAL OUTER MEMBRANE To SMALL PROTEINS,” J. Biol. Chem. 277:26796-26803). This assay measures the CN-sensitive oxidation of exogenously-added reduced cytochrome c by cytochrome c oxidase of the inner membrane. […] Mitochondria are incubated with test agents (e.g., C16-ceramide) for a predetermined period of time (e.g., 5-20 minutes), reduced cytochrome c is added and the absorbance is monitored at 550 nm. […]

Compound	concentration exhibiting potent inhibitory effects on ceramide channels (ceramide channels)	ceramide:phospholipids ratio needed to permeabilize an erythrocyte membrane relative to MOM (erythrocytes)	ceramide inserted sufficient to permeabilize the outer membrane to cytochrome c [1]
OC[C@H]1O[C@H](O[C@H]2O[C@H](CO)[C@@H](O)[C@H](O)[C@H]2O)[C@H](O)[C@@H](O)[C@@H]1O [trehalose]	50 mM	–	–
ceramide	–	20 fold	2 pmoles per nmole of phospholip
